What was measured:
Assay in all cases: relative viability (nuclei count vs DMSO), 5 days (fraction); higher = more cells survive
Crizotinib + Vorinostat = compound: C[C@@H](Oc1cc(-c2cnn(C3CCNCC3)c2)cnc1N)c1c(Cl)ccc(F)c1Cl [Crizotinib] + O=C(CCCCCCC(=O)Nc1ccccc1)NO [Vorinostat] (partner 1 µM)
How it was run: (§1)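 Five library-drug doses in √10 steps were combined with a fixed anchor-drug dose, or a single drug was given alone, by pin tool to lung cancer cell lines in 1536-well plates the day after seeding. Nuclei were stained and counted after 5 days. Relative viability is the nuclei count in treated wells over that in vehicle wells, taken as the median of duplicate plates.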

Carfilzomib + Vorinostat = compound: CC(C)C[C@H](NC(=O)[C@H](CCc1ccccc1)NC(=O)CN1CCOCC1)C(=O)N[C@@H](Cc1ccccc1)C(=O)N[C@@H](CC(C)C)C(=O)[C@@]1(C)CO1 [Carfilzomib] + O=C(CCCCCCC(=O)Nc1ccccc1)NO [Vorinostat] (partner 1 µM)
How it was run: as §1

Olaparib + Pictilisib = compound: O=C(c1cc(Cc2n[nH]c(=O)c3ccccc23)ccc1F)N1CCN(C(=O)C2CC2)CC1 [Olaparib] + CS(=O)(=O)N1CCN(Cc2cc3nc(-c4cccc5[nH]ncc45)nc(N4CCOCC4)c3s2)CC1 [Pictilisib] (partner 1 µM)
How it was run: as §1

Olaparib + Pemetrexed = compound: O=C(c1cc(Cc2n[nH]c(=O)c3ccccc23)ccc1F)N1CCN(C(=O)C2CC2)CC1 [Olaparib] + Nc1nc2[nH]cc(CCc3ccc(C(=O)N[C@@H](CCC(=O)O)C(=O)O)cc3)c2c(=O)[nH]1 [Pemetrexed] (partner 0.2 µM)
How it was run: as §1

Cell Line | relative viability (Crizotinib + Vorinostat; first compound 0.01 µM) | relative viability (Crizotinib + Vorinostat; first compound 0.03162 µM) | relative viability (Crizotinib + Vorinostat; first compound 0.1 µM) | relative viability (Crizotinib + Vorinostat; first compound 0.3162 µM) | relative viability (Crizotinib + Vorinostat; first compound 1 µM) | relative viability (Carfilzomib + Vorinostat; first compound 0.001 µM) | relative viability (Carfilzomib + Vorinostat; first compound 0.003162 µM) | relative viability (Carfilzomib + Vorinostat; first compound 0.01 µM) | relative viability (Carfilzomib + Vorinostat; first compound 0.03162 µM) | relative viability (Carfilzomib + Vorinostat; first compound 0.1 µM) | relative viability (Olaparib + Pictilisib; first compound 0.08 µM) | relative viability (Olaparib + Pictilisib; first compound 0.253 µM) | relative viability (Olaparib + Pictilisib; first compound 2.53 µM) | relative viability (Olaparib + Pictilisib; first compound 8 µM) | relative viability (Olaparib + Pemetrexed; first compound 0.08 µM) | relative viability (Olaparib + Pemetrexed; first compound 0.253 µM) | relative viability (Olaparib + Pemetrexed; first compound 2.53 µM) | relative viability (Olaparib + Pemetrexed; first compound 8 µM)
EPLC-272H | 0.41 | 0.398 | 0.361 | 0.403 | 0.581 | 0.518 | 0.417 | 0.108 | 0.055 | 0.0448 | 0.311 | 0.284 | 0.278 | 0.283 | 0.316 | 0.312 | 0.345 | 0.357
H3255 | 0.782 | 0.841 | 0.765 | 0.784 | 0.999 | 0.546 | 0.954 | 0.929 | – | 0.811 | 0.478 | 0.406 | 0.445 | 0.386 | 0.598 | 0.58 | 0.577 | 0.597
HARA | 0.494 | 0.491 | 0.532 | 0.54 | 0.523 | 0.507 | 0.561 | 0.501 | 0.436 | 0.0635 | 0.407 | 0.454 | 0.567 | 0.37 | 0.274 | 0.251 | 0.272 | 0.232
HCC-15 | 0.802 | 0.875 | 0.926 | 0.847 | 0.875 | 0.927 | 0.821 | 0.951 | 0.506 | 0.132 | 0.866 | 0.647 | 0.678 | 0.627 | 0.215 | 0.224 | 0.209 | 0.221
HCC-44 | 1.03 | 1.13 | 1.18 | 1.01 | 1.14 | 1.2 | 1.1 | 1.13 | 1.17 | 0.604 | 0.697 | 0.552 | 0.7 | 0.544 | 0.658 | 0.619 | 0.716 | 0.748
HCC-78 | 0.418 | 0.388 | 0.402 | 0.336 | 0.437 | 0.433 | 0.467 | 0.461 | 0.303 | 0.283 | 0.241 | 0.204 | 0.208 | 0.196 | 0.885 | 0.886 | 0.906 | 0.908
HCC-366 | 0.336 | 0.423 | 0.31 | – | 0.403 | 0.315 | 0.444 | 0.313 | 0.0693 | 0.0215 | 0.135 | 0.179 | 0.11 | 0.138 | 0.165 | 0.195 | 0.206 | 0.271
HCC-827 | 0.873 | 0.602 | 0.917 | 0.884 | – | 0.821 | 0.913 | 0.943 | 0.673 | 0.189 | 0.905 | 0.781 | 1.07 | 0.95 | 0.27 | 0.275 | 0.253 | 0.261
HOP-62 | 0.638 | 0.672 | 0.613 | 0.3 | 0.685 | 0.559 | 0.632 | 0.215 | 0.0689 | 0.0634 | 0.846 | 0.601 | 0.698 | 0.464 | 0.353 | 0.316 | 0.337 | 0.322

From the supplement of paper PMC10307832
